Test results published in US20250282810A1, “Chemical Synthesis Method and Application of V. Cholerae Serotype O100 O-Antigen Oligosaccharides” (priority 2024, published 2025).

Tested on: rabbit serum IgG antibodies
Test: Glycan microarray screening of synthetic oligosaccharides with rabbit serum
Assay type: binding
Conditions: oligosaccharides printed at 0.1 mM and 0.5 mM, LPS at 1 mg/mL and 5 mg/mL, rabbit serum 1:200, cy3 goat anti-rabbit IgG 1:400
Method: . Then, a microarray spotter was used for printing distribution grids shown in FIG. 9B onto the area of a microarray (9 mm long*9 mm wide), and incubation was performed overnight at room temperature and 65% humidity to covalently bind oligosaccharide fragments to the microarray. After incubation, a mixed solution (pH=9) of […] ethanolamine and […] sodium phosphate was used for processing at 50° C. for 1 h, and then, ultrapure water was used for washing.
The glycan microarray was blocked with a PBS solution containing 3% BSA at room temperature for 1 h. The glycan microarray was washed once with a PBS solution containing 0.1% Tween 20 (PBST solution), washed twice with a PBS solution, and spin-dried, and the glycan microarray was loaded into a 16-well incubator (ProPlate). 120 microliters of rabbit serum sample diluted in a ratio of 1:200 in a PBS solution containing 1% BSA was added to each well, and incubated overnight in a moist chamber at 4° C. in the dark to allow rabbit serum IgG antibodies identifying the synthetic oligosaccharide fragments to bind to the synthetic oligosaccharides on the glycan microarray, and the sample was removed and washed three times with 200 microliters of PBST solution to remove unbound serum IgG antibodies. […]

D-FucNAc [synthetic sugar 6*]
binding ability to IgG antibodies (fluorescence signals): did not bind to antibodies
